Consider 29 compounds from US8604055B2, “Substituted benzylamino quinolines as cholesterol ester-transfer protein inhibitors” (Dr. Reddy's Laboratories Ltd., priority 2004, dated 2013).

The target in the assay is T1, Recombinant CETP enzyme (Homo sapiens, UniProt P11597).
T1 construct: purchased Cardiovascular Targets
T1 sequence (P11597 18-493): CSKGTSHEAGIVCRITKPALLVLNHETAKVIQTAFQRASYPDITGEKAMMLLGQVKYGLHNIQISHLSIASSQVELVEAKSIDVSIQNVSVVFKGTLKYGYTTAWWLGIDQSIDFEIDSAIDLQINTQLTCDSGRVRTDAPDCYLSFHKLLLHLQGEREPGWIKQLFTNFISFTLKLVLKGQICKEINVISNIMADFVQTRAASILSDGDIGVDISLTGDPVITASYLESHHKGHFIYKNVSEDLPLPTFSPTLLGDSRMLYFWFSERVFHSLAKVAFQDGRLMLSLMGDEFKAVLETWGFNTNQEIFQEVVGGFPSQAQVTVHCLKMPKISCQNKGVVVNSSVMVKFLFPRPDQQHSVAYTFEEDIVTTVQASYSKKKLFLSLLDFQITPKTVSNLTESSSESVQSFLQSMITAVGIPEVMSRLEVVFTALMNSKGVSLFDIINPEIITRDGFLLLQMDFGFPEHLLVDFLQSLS
Kind of assay: In vitro fluorescence-based CETP inhibition assay (BODIPY-CE transfer from donor to acceptor microemulsions). It is filed as biochemical. To be noted: recombinant CETP 0.14 ng/μl; transfer of fluorescent cholesteryl ester monitored over 2 hours; vs DMSO controls. On the procedure: An in vitro fluorescence-based assay to identify CETP inhibitors was developed from modifications of the protocols outlined in Bisgaier et al., J Lipid Res., 34(9): 1625-34 (1993) and Epps et al., Chem Phys Lipids., 77(1): 51-63 (1995). Acceptor and donor lipid microemulsions were prepared according to Bisgaier et al., 1993, except that the buffer was prepared with 0.67 ug/mL human HDL (Calbiochem). Donor microemulsions contained the fluorescent cholesteryl ester analog BODIPY-CE (Molecular Probes), characterized by excitation and emission maxima at 503 nm and 518 nm, respectively. The CETP-mediated transfer of fluorescent cholesteryl ester to acceptor particles was monitored over a 2-hour time period using the FAM filter set (excitation 492 nm, emission 516 nm) in an MX3000P fluorescent plate reader (Stratagene). Recombinant CETP enzyme (Cardiovascular Targets) was used at 0.14 ng/μl, final concentration, to achieve lipid transfer. CETP inhibition by compounds was compared to DMSO controlsand graphed as a percentage of the control CETP activity over 2 hours. The IC50 curves for CETP inhibition were generated from the activity profiles. Active compounds were also tested for CETP inhibition as above, but in the presence of 3% human serum albumin, fraction V (Calbiochem).
For orientation: IC50 means the concentration that inhibits the measured activity by half. As for `CCN(CC1CC1)c1nc2ccccc2cc1CN(Cc1cc(C(F)(F)F)cc(C(F)(F)F)c1)C(=O)OC` [Example 44, (3,5-bis-trifluoromethyl-benzyl)-[2-(cyclopropylmethyl-ethyl-amino)-quinolin-3-ylmethyl]-carbamic acid methyl ester], the IC50 was not above 5 µM.

On to `CCN(CC1CCC1)c1nc2ccccc2cc1CN(Cc1cc(C(F)(F)F)cc(C(F)(F)F)c1)C(=O)OC` [Example 45], for which the IC50 was not above 5 µM.

Regarding `CCN(CC1CCCC1)c1nc2ccc(C)cc2cc1CN(Cc1cc(C(F)(F)F)cc(C(F)(F)F)c1)C(=O)OC` [Example 46, (3,5-bis-trifluoromethyl-benzyl)-[2-(cyclopentylmethyl-ethyl-amino)-6-methyl-quinolin-3-ylmethyl]-carbamic acid methyl ester], the IC50 was not above 5 µM.

Take `CCN(CC1CCCC1)c1nc2ccccc2cc1CN(Cc1cc(C(F)(F)F)cc(C(F)(F)F)c1)C(=S)SC` [Example 48, (3,5-bis-trifluoromethyl-benzyl)[2-(cyclopentylmethyl-ethyl-amino)-quinolin-3-ylmethyl]-dithiocarbamic acid methyl ester]: the IC50 was not above 5 µM.

Regarding `CCOC(=O)NC(=S)N(Cc1cc(C(F)(F)F)cc(C(F)(F)F)c1)Cc1cc2ccccc2nc1N(CC)CC1CCCC1` [Example 49, 3-ethoxycarbonyl-1-(3,5-Bis-trifluoromethyl-benzyl)-1-[2-(cyclopentylmethyl-ethyl-amino)-quinolin-3-ylmethyl]-thiourea], the IC50 is not above 5 µM.

For `CCCCN(CC)c1nc2ccccc2cc1CN(Cc1cc(C(F)(F)F)cc(C(F)(F)F)c1)c1nnn(C)n1` [Example 54], the concentration for half-maximal inhibition (IC50) was not above 1 µM.

For `CCN(CC1CC1)c1nc2ccccc2cc1CN(Cc1cc(C(F)(F)F)cc(C(F)(F)F)c1)c1nnn(C)n1` [Example 55], the IC50 was not above 1 µM.

Take `CCN(CC1CCC1)c1nc2ccccc2cc1CN(Cc1cc(C(F)(F)F)cc(C(F)(F)F)c1)c1nnn(C)n1` [Example 56]: the IC50 is not above 1 µM.

`CCN(CC1CCCC1)c1nc2ccccc2cc1CN(Cc1cc(C(F)(F)F)cc(C(F)(F)F)c1)c1nc(C)cs1` [Example 63]: the IC50 is not above 5 µM.

As for `CCN(CC1CCC1)c1nc2ccccc2cc1CN(Cc1cc(C(F)(F)F)cc(C(F)(F)F)c1)c1cc(C)on1` [Example 65, (3-{[3,5-bis-trifluoromethyl-benzyl-(5-methyl-isoxazol-3-yl)-amino]-methyl}-quinolin-2-yl)-cyclobutylmethyl-ethyl-amine], the IC50 was not above 1 µM.

Consider `CCN(CC1CCCC1)c1nc2ccccc2cc1CN(Cc1cc(C(F)(F)F)cc(C(F)(F)F)c1)c1ncccn1` [Example 66, (3-{[(3,5-bis-trifluoromethyl-benzyl)-pyrimidin-2-yl-amino]-methyl}-quinolin-2-yl)-cyclopentylmethyl-ethyl-amine], for which the IC50 is not above 5 µM.

With `CCN(CC1CCCC1)c1nc2ccccc2cc1CN(Cc1cc(C(F)(F)F)cc(C(F)(F)F)c1)c1nc(C)co1` [Example 67], the IC50 is not above 1 µM.

Consider `CCN(CC1CCCC1)c1nc2ccccc2cc1CN(Cc1cc(C(F)(F)F)cc(C(F)(F)F)c1)C1=NCCO1` [Example 68, (3-{[(3,5-bis-trifluoromethyl-benzyl)-(4,5-dihydro-oxazol-2-yl)-amino]-methyl}-quinolin-2-yl)-cyclopentylmethyl-ethyl-amine], for which the IC50 is not above 5 µM.

For the compound `CCN(CC1CCCC1)c1nc2ccccc2cc1CN(Cc1cc(C(F)(F)F)cc(C(F)(F)F)c1)c1ccccn1` [Example 69, (3-{[(3,5-bis-trifluoromethyl-benzyl)-pyridin-2-yl-amino]-methyl)-quinolin-2-yl)-cyclopentylmethyl-ethyl-amine], the half-inhibitory concentration (IC50) was not above 5 µM.

Consider `CCN(CC1CCCC1)c1nc2ccccc2cc1CN(Cc1cc(C(F)(F)F)cc(C(F)(F)F)c1)Cc1nnn(C)n1` [Example 70, (3-{[(3,5-bis-trifluoromethyl-benzyl)-(2-methyl-2H-tetrazol-5-ylmethyl)-amino]-methyl}-quinolin-2-yl)-cyclopentylmethyl-ethyl-amine], for which the IC50 is not above 5 µM.

For the compound `CCN(CC1CCCC1)c1nc2ccccc2cc1CN(Cc1cc(C(F)(F)F)cc(C(F)(F)F)c1)Cc1nnnn1C` [Example 71, (3-{[(3,5-bis-trifluoromethyl-benzyl)-(1-methyl-1H-tetrazol-5-ylmethyl)-amino]-methyl}-quinolin-2-yl)-cyclopentylmethyl-ethyl-amine], the half-maximal inhibitory concentration (IC50) is not above 5 µM.

Regarding `CCCCN(CC)c1ncccc1CN(Cc1cc(C(F)(F)F)cc(C(F)(F)F)c1)c1nnn(C)n1` [Example 73], the concentration for half-maximal inhibition (IC50) is not above 5 µM.

Turning to `CCN(CC1CCCC1)c1nc2c(cc1CN(Cc1cc(C(F)(F)F)cc(C(F)(F)F)c1)C(=O)OC)CCCC2` [Example 74], the IC50 is not above 1 µM.

As for `CCN(CC1CCCC1)c1nc2c(cc1CN(Cc1cc(C(F)(F)F)cc(C(F)(F)F)c1)C(=O)OC)CCC2` [Example 75, (3,5-bis-trifluoromethyl-benzyl)-[2-(cyclopentylmethyl-ethyl-amino)-6,7-dihydro-5H-[1]pyridin-3-ylmethyl]-carbamic acid methyl ester], the half-maximal inhibitory concentration (IC50) was not above 5 µM.

In the case of `CCN(CC1CCCC1)c1nc2c(cc1CN(Cc1cc(C(F)(F)F)cc(C(F)(F)F)c1)c1nnn(C)n1)CCC2` [Example 76, (3-{[(3,5-bis-trifluoromethyl-benzyl)-(2-methyl-2H-tetrazole-5-yl)-amino]-methyl}-,6,7-dihydro-5H-[1]pyridine-2-yl)-cyclopentylmethyl-ethyl-amine], the half-inhibitory concentration (IC50) was not above 1 µM.

With `CCN(CC1CCCC1)c1nc2c(cc1CN(Cc1cc(C(F)(F)F)cc(C(F)(F)F)c1)c1nnn(C)n1)CCCC2` [Example 77], the IC50 was not above 1 µM.

Turning to `CCN(CC1CCCC1)c1nc2c(cc1CN(Cc1cc(C(F)(F)F)cc(C(F)(F)F)c1)c1nnc(C)o1)CCCC2` [Example 78, (3-{[3,5-bis-trifluoromethyl-benzyl)-(5-methyl-[1,3,4oxadiazol-2-yl)-amino]-methyl}-5,6,7,8-tetrahydroquinoline-2-yl)-cyclopentylmethyl-ethyl-amine], the half-maximal inhibitory concentration (IC50) is not above 1 µM.

Take `Cc1cccc2cc(CN(Cc3cc(C(F)(F)F)cc(C(F)(F)F)c3)c3nnn(C(C)C)n3)c(N(CC3CC3)CC3CC3)nc12` [Example 85]: the IC50 is not above 1 µM.

Take `Cc1cccc2cc(CN(Cc3cc(C(F)(F)F)cc(C(F)(F)F)c3)c3nnn(CCNC(=O)OC(C)(C)C)n3)c(N(CC3CC3)CC3CC3)nc12` [Example 86, (2-{5-[[2-(bis-cyclopropylmethyl-amino)-8-methyl-quinolin-3-ylmethyl]-(3,5-bis-trifluoromethyl-benzyl)-amino]-tetrazol-2-yl}-ethyl)-carbamic acid tert-butyl ester]: the half-inhibitory concentration (IC50) was not above 1 µM.

Regarding `Cn1nnc(N(Cc2cc(C(F)(F)F)cc(C(F)(F)F)c2)Cc2cc3cccc(Cl)c3nc2N(CC2CC2)CC2CC2)n1` [Example 90], the IC50 was not above 1 µM.

As to `Cc1cccc2cc(CN(Cc3cc(C(F)(F)F)cc(C(F)(F)F)c3)c3nnn(CCO)n3)c(N(CC3CC3)CC3CC3)nc12` [Example 93, 2-{5-[[2-(bis-cyclopropylmethyl-amino)-8-methyl-quinoline-3-ylmethyl]-(3,5-bistrifluoromethyl-benzyl)-amino]-tetrazol-2-yl}-ethanol], the IC50 is not above 1 µM.

Turning to `CCN(CC1CCC1)c1nc2c(cnn2CC2CC2)cc1CN(Cc1cc(C(F)(F)F)cc(C(F)(F)F)c1)c1nnn(C)n1` [Example 101, (5-{[(3,5-bis-trifluoromethyl-benzyl)-(2-methyl-2H-tetrazol-5-yl)-amino]methyl}-1-cyclopropylmethyl-1H-pyrazolo[3,4-b]pyridin-6-yl)-cyclobutylmethyl-ethyl-amine], the IC50 is not above 1 µM.

With `Cc1cccc2cc(CN(Cc3cc(C(F)(F)F)cc(C(F)(F)F)c3)c3ccc(Br)cn3)c(N(CC3CC3)CC3CC3)nc12` [Example 111, (3-{[(3,5-bis-trifluoromethyl-benzyl)-(5-bromo-pyridin-2-yl)-amino]-methyl}-8-methyl-quinolin-2-yl)-bis-cyclopropylmethyl-amine], the IC50 was not above 1 µM.

For the compound `Cc1cccc2cc(CN(Cc3cc(C(F)(F)F)cc(C(F)(F)F)c3)c3ncnc(Cl)n3)c(N(CC3CC3)CC3CC3)nc12` [Example 117, (3-{[(3,5-bis-trifluoromethyl-benzyl)-(4-chloro-[1,3,5]triazin-2-yl)-amino]-methyl}-8-methyl-quinolin-2-yl)-bis-cyclopropylmethyl-amine], the IC50 is not above 1 µM.
